Measurements reported in US7285618B1, “Polypeptides having neutrophil stimulating activity” (Japan Tobacco Inc., priority 2000, dated 2007).
Like-named read-outs stand apart in the source and are kept apart here. Where a SMILES comes first, the peptide text is derived from it. Where no end group is shown, it is not given here. The star is where a group is joined. For = O=C*

Legend:
[1] = test system: differentiated HL60 cells; assay: Migration promoting activity (Chemotaxis Cells), differentiated HL60 cells; type: cell-based, human; settings: for activity for migration at the concentrations where β-HA secretion was observed / concentrations of migration activity relative to the concentration for β-HA secretion: Example 12
Description: (§1) The migration promoting activity of each of the polypeptides of interest was measured using Chemotaxis Cells (Kurabo) as follows: The differentiated HL60 cells or undifferentiated HL60 cells were washed three times with ice-cooled HBHS and a cell suspension was prepared at a cell density of 4×10^6 cells/ml. The cell suspension was incubated at 37° C. for 10 minutes; thereafter, 500 μl of the cell suspension was transferred to Chemotaxis Cells (2×10^6 cells/Cell), which were put on a micro-well plate filled with pre-heated (37° C.) HBHS containing 1 ml of polypeptide and incubation was performed at 37° C. for 1 hour. Then, the Chemotaxis Cells were removed from the plate and the number of cells that had migrated in each well was counted.
(§2) Migration promoting activity was expressed by a chemotaxis index, or the number of cells that migrated upon stimulation was divided by the number of cells migrated without stimuli.
(§3) The activity of the human homologues of COSP-1 and fCyt b (1-15) for promoting β-HA secretion and migration promoting activities were measured following the methods described in Examples 4 and 5, respectively. The activity for β-HA secretion was expressed by the percentage for the maximum amount of secretion upon stimulation with 10 μM of fMLP, whereas the activity for migration was expressed by a chemotaxis index, i.e., the ratio of the number of stimulated migrating cells to that of unstimulated migrating cells.

[2] = test system: undifferentiated HL60 cells; assay: β-HA secretion from undifferentiated HL60 cells (Example 12); type: cell-based, human; settings: data not shown
Description: as §3

[3] = test system: undifferentiated HL60 cells; assay: Migration promoting activity (Chemotaxis Cells), undifferentiated HL60 cells; type: cell-based, human
Description: as §1, §2
The activity of the human homologues of COSP-1 and fCyt b (1-15) for promoting β-HA secretion and migration promoting activities were measured following the methods described in Examples 4 and 5, respectively. […]

[4] = test system: differentiated HL60 cells; type: cell-based, human; settings: for activity of promoting β-HA secretion / activity for β-HA secretion compared with COSP-1 and fCyt b (1-15): differentiated HL60 cells; for activity of promoting β-HA secretion: Example 12; for activity for β-HA secretion compared with COSP-1 and fCyt b (1-15): human homologues; for β-HA secretion from differentiated HL60 cells (%/total): total = β-HA released with 0.05% Triton X-100
Description: a. Cultivation of HL60 Cells and Induction to the Differentiated Neutrophil-Like Cells For cultivation, heat-inactivated FCS (final concentration; 10%), streptomycin (final concentration; 100 mg/l), penicillin G (final concentration of 10^5 units/l) and RPMI-1640 culture solution containing 10 mM Hepes (pH 7.4) were used. Cells were cultivated at a cell density of 2×10^5-1.5×10^6 cells/ml in a plastic flask (80 cm^2, 260 ml, Nunc) at 37° C. under stationary conditions with a 5% of CO2 concentration and a 100% of humidity. […] c. […] Measuring β-HA Enzyme Activity The amount of β-HA secreted into the reaction supernatant was determined by measuring the absorbance at 415 nm of p-nitrophenol that was generated by an enzymatic reaction involving p-nitrophenyl N-acetyl-β-D-glucosaminide as a substrate. To be specific, 90 μl of the reaction supernatant was transferred to a 96-well Immuno plate (Nunc) and 60 μl of a substrate solution (10 mM p-nitrophenyl N-acetyl-β-D-glucosaminide/40 mM citrate, 70 mM Na2HPO4, pH 4.5) was added to initiate an enzymatic reaction. Following a 1-hr reaction at 37° C., 100 μl of a reaction quencher (400 mM glycine, pH 10.7) was added to stop the reaction and the absorbance at 415 nm was measured. As a control, cells were treated with Triton X-100 at a final concentration of 0.05% and the amount of β-HA in the supernatant was measured. As another control, the amount of β-HA secreted from cells upon stimulation with fMLP at a final concentration of 10 μM was measured.

[5] = test system: differentiated HL60 cells
Description: (§10) The differentiated HL60 cells and human leukocyte cells were washed three times with ice-cooled 0.1% BSA containing Hepes buffered Hank's solution (HBHS; 10 mM Hepes, 136.9 mM NaCl, 5.4 mM KCl, 1.2 mM CaCl2, 0.44 mM KH2PO4, 0.49 mM MgCl2, 0.41 mM MgSO4, 0.34 mM Na2HPO4, 5.5 mM glucose, 4.2 mM NaHCO3, pH 7.4). A cell suspension was prepared for each cell type at 5.5×10^6 cells/ml. Cytochalasin B and DNase I were then added to each cell suspension at a final concentration of 5 μg/ml. Ninety μl of each cell suspension was then transferred to an ice-cooled tube (5.0×10^5 cells/tube) and incubated at 37° C. for 10 minute. To each tube, either one of the fractions of polypeptide (or extract) in solution (10 μl) was added and incubated at 37° C. for 10 minutes to stimulate the cells. Immediately after the treatment, 200 μl of ice-cooled reaction quenching buffer (25 mM Tris, 123 mM NaCl, 2.7 mM KCl, pH 7.4) was added to the cell suspensions to stop the stimulation. Thereafter, the tubes were spun down at 4° C. for 60 seconds to precipitate the cell pellets and the β-HA activity and the lactate dehydrogenase (LDH) activity in the supernatant were measured.
(§11) The amount of LDH secreted into the reaction mixture was determined by measuring the absorbance (340 nm) of NADH generated by reduction of that NAD involves dehydrogenation of lactate. Reaction was initiated by adding a 400 μl of a substrate-buffer solution (125 mM 2-amino-2-methyl-1-propanol, 125 mM lithium lactate, 6.25 mM NAD, pH 9.5) to a 100 μl of the reaction supernatant. Following a 1-hr incubation at 37° C., the mixture was quenched in ice water to stop the reaction and the absorbance at 340 nm was measured.
(§12) The LDH enzyme activity secreted in the reaction mixture was expressed as the percentage of the total enzyme activity in cells (%/total) which was the enzyme activity of LDH released upon disruption of the cells with 0.05% Triton X-100.

[6] = test system: differentiated HL60 cells; assay: LDH leakage from HL60 cells; settings: differentiated HL60 cells, Example 4
Description: as §10, §11, §12

[7] = test system: differentiated HL60 cells; assay: Intracellular Ca2+ concentration (fura-2), differentiated HL60 cells; type: cell-based, human; settings: differentiated HL60 cells (+)
Description: (§4) The differentiated HL60 cells or undifferentiated HL60 cells were washed twice with a Hepes-Na solution (140 mM NaCl, 4 mM KCl, 1 mM NaH2PO4, 1 mM MgCl2, 1.25 mM CaCl2, 5 mM Hepes, 11 mM glucose, 0.2% BSA, pH 7.4). Then, Ca^2+ sensitive fluorescence reagent, fura-2/AM, was added to the cell suspension (4 ml: final concentration, 4 μM). The reaction mixture was then shaken gently at room temperature for 60 minutes, shielded from light in order to incorporate fura-2 into the HL60 cells. Subsequently, the cells were washed twice with a Hepes-Na solution and a cell suspension was prepared at a final cell density of 1.0×10^6 cells/ml. One milliliter of the cell suspension was put into reaction cuvettes and stimulated with various samples under stirring at 30° C. Ratios of fluorescence intensity at 500 nm (F) for an excitation wavelength at 340 nm to that at 380 nm were measured with a fluorimeter (CAF-100, Japan Spectroscopic Co., Ltd.) and [Ca^2+]i was calculated following the formula: [Ca^2+]i(nM)=K×{(F−Fmin)/(Fmax−F)}×A/B, wherein
(§5) Fmax: a ratio of fluorescence intensity at 500 nm for an excitation wavelength at 340 nm to that at 380 nm after all cells were solubilized with 0.1% Triton X-100;
(§6) Fmin: a ratio of fluorescence intensity at 500-nm for an excitation wavelength at 340 nm to that at 380 nm after the whole calcium was chelated with 4 mM EGTA;
(§7) A: fluorescence intensity at 500-nm for an excitation wavelength at 380 nm, when all the calcium was chelated with EGTA;
(§8) B: fluorescence intensity at 500-nm for an excitation wavelength at 380 nm, when all cells were solubilized with Triton X-100;
(§9) K: 224 (nM) (the dissociation constant of fura-2).

[8] = test system: undifferentiated HL60 cells; assay: Intracellular Ca2+ concentration (fura-2), undifferentiated HL60 cells; type: cell-based, human
Description: as §4, §5, §6, §7, §8, §9

With “fMet-Thr-Pro-Met-Arg-Lys-Ile-Asn-Pro-Leu-Met-Lys-Leu-Ile-Asn (For-MTPMRKINPLMKLIN; listed as Homo sapiens) [Human fCyt b (1-15)]” the “migration promoting (attracting) activity” value [1] was “showed the activity”, the “activity for migration at the concentrations where β-HA secretion was observed” value [1] was “desensitized” and the “concentrations of migration activity relative to the concentration for β-HA secretion” value [1] was “observed at concentrations lower”. The “activity of promoting β-HA secretion” value [2] was “not observed”, the migration promoting activity [3] was “not observed” and the “activity of promoting β-HA secretion” value [4] was “showed the activity”. For the same compound, the “activity for β-HA secretion compared with COSP-1 and fCyt b (1-15)” value [4] was “comparable” and the “β-HA secretion from differentiated HL60 cells (%/total)” value [4] was 65.9 %/total.
For CC[C@H](C)[C@H](NC(=O)[C@H](CC(N)=O)NC(=O)[C@@H](NC(=O)[C@H](CCSC)NC=O)[C@@H](C)O)C(=O)N[C@@H](CCCNC(=N)N)C(=O)N[C@@H](CCCCN)C(=O)N[C@@H](CO)C(=O)N[C@@H](Cc1c[nH]cn1)C(=O)N1CCC[C@H]1C(=O)N[C@@H](CC(C)C)C(=O)N[C@@H](CCSC)C(=O)N[C@@H](CCCCN)C(=O)N[C@H](C(=O)N[C@H](C(=O)N[C@@H](CC(N)=O)C(=O)O)[C@@H](C)CC)[C@@H](C)CC [fCyt b (1-15), fMet-Thr-Asn-Ile-Arg-Lys-Ser-His-Pro-Leu-Met-Lys-Ile-Ile-Asn] (For-MTNIRKSHPLMKIIN-OH), the EC50 [4] was 38 ± 3.4 nM.
For CC[C@H](C)[C@H](NC(=O)[C@H](CC(N)=O)NC(=O)[C@@H](NC(=O)[C@H](CCSC)NC=O)[C@@H](C)O)C(=O)N[C@@H](CCCNC(=N)N)C(=O)N[C@@H](CCCCN)C(=O)N[C@@H](CO)C(=O)N[C@@H](Cc1cnc[nH]1)C(=O)N1CCC[C@H]1C(=O)N[C@@H](CC(C)C)C(=O)N[C@@H](CCSC)C(=O)N[C@@H](CCCCN)C(=O)N[C@H](C(=O)N[C@H](C(=O)N[C@@H](CC(N)=O)C(=O)O)[C@@H](C)CC)[C@@H](C)CC [fCyt b (1-15), fMet-Thr-Asn-Ile-Arg-Lys-Ser-His-Pro-Leu-Met-Lys-Ile-Ile-Asn] (For-MTNIRKSHPLMKIIN-OH), the “LDH leakage out of the cells” value [5] was “no LDH was found to leak out”.
For MTNIRKSHPLMKIIN [Cyt b (1-15)], the “LDH leakage out of the cells” value [6] was “no LDH was found to leak out”.
In the case of VTFLLPAGWILSHLETYRRPE [Human COSP-1], the “migration promoting (attracting) activity” value [1] is reported as “showed the activity”, the “activity for migration at the concentrations where β-HA secretion was observed” value [1] is reported as “desensitized” and the “concentrations of migration activity relative to the concentration for β-HA secretion” value [1] is reported as “observed at concentrations lower”. For the same compound, the “activity of promoting β-HA secretion” value [2] was “not observed”, the migration promoting activity [3] was “not observed” and the “activity of promoting β-HA secretion” value [4] was “showed the activity”. The “activity for β-HA secretion compared with COSP-1 and fCyt b (1-15)” value [4] was “comparable” and the “β-HA secretion from differentiated HL60 cells (%/total)” value [4] was 53.5 %/total.
With Nc1ncnc2c1ncn2[C@@H]1O[C@H](COP(=O)(O)OP(=O)(O)OP(=O)(O)O)[C@@H](O)[C@H]1O [ATP] the “intracellular Ca2+ concentration” value [7] was “increased” and the “intracellular Ca2+ concentration” value [8] was “increased”.
